Data on 2 compounds can be found in patent US20070077202A1, “Histostain composition for endoscope” (PENTAX Corporation, priority 2005, published 2007).

The subject of experiment [1] is large intestine tissue. The experiment in a line: relative fluorescence brightness estimated from spectral sensitivity of the confocal microscope. It counts as in vivo, mouse. The following applies: same dye concentration. As for the experimental part:
That is, this function can be used for relative estimation of the fluorescence intensity of each of the samples having different brightness levels.
The fluorescence brightness of a sample with Sodium fluorescein relative to Monascus color (yellow), as calculated on the basis of such spectral sensitivity as to give the same degree of fluorescence brightness, was 0.74 times after 10 minutes or 0.84 times after 60 minutes.

For experiment [2], the system named is large intestine tissue. The experiment in a line: staining test by perfusion through the heart of a mouse. The experiment is classed as in vivo. The conditions noted are these: 1 mg/mL. The procedure:
A staining test was carried out with Monascus color (yellow) (1 mg/mL, 2 mL) by perfusion thereof through the heart of a mouse. […] The permeability of stain by this perfusion staining method was higher than the method in which the excised tissue is stained (Example 2) or the method in which colors are injected through the anus (Example 7). […] That is, the well-stained sites were the same as in Examples 7 and 8.
Sodium fluorescein (1 mg/mL) was also examined in the same manner as in Example 9.

The test system of experiment [3] is mouse large intestine. The experiment in a line: mouse large intestine staining with xanthomonasin A, excised after 1 minute and 10 minutes. The conditions noted are these: 1 mg/mL saline, 100 μL. The experiment is classed as in vivo. As for the experimental part:
Mice (ddY, 9-week-old, male) were anesthetized, and 100 μL xanthomonasin A (centrifuged and dried sample, 1 mg/mL saline) was injected via an injection needle into the large intestine lumen for staining. The mouse large intestines were excised after 1 minute and 10 minutes respectively, and the samples were observed under a confocal microscope (TCS SP2).

Experiment [4] has as its system mouse large intestine. The experiment in a line: mouse large intestine staining test with purified xanthomonasin A, confocal image. It counts as in vivo. The following applies: 10 mg/mL saline, 100 μL, 5 minutes. As for the experimental part: Using purified xanthomonasin A in Example 10, a mouse large intestine staining test was carried out. A mouse (ddY, 9-week-old, male) was anesthetized, and 100 μL xanthomonasin A (centrifuged and dried sample, 10 mg/mL saline) was injected via an injection needle into the large intestine lumen for staining. After 5 minutes, the mouse large intestine was excised and its confocal image was taken and observed under a confocal microscope (TCS SP2).

Experiment [5] deals with mouse large intestine. The experiment in a line: mouse large intestine staining test with xanthomonasin A, frozen section observation. The experiment is classed as in vivo. The following applies: 10 mg/mL saline, 100 μL, 5 minutes; 6 μm frozen section. As for the experimental part: Purified xanthomonasin A in Example 10 was used in a mouse large intestine staining test and for observing a frozen section. A mouse (ddY, 11-week-old, male) was anesthetized, and 100 μL xanthomonasin A (centrifuged and dried sample, 10 mg/mL saline) was injected via an injection needle into the large intestine lumen for staining. After 5 minutes, the mouse large intestine was excised, frozen and embedded in OCT compound, and the frozen section thus obtained was cut into thin slices each having a thickness of 6 μm. The thin slices were observed by hematoxylin-eosin staining and also observed for fluorescence by staining with xanthomonasin A.

As for `O=C([O-])c1ccccc1-c1c2ccc(=O)cc-2oc2cc([O-])ccc12.[Na+].[Na+]` [Sodium fluorescein], the “fluorescence brightness relative to Monascus color (yellow)” value in the experiment on large intestine tissue [1] (after 10 minutes) was 0.74 times. For the same compound, the “fluorescence brightness relative to Monascus color (yellow)” value in the experiment with large intestine tissue [1] (after 60 minutes) is given as 0.84 times. For the same compound, in the experiment with large intestine tissue [2], the “staining of cell nuclei” value is “could not be judged”, the “staining of cells constituting the mucosa” value is reported as “many of the cells constituting the mucosal tissue were stained well” and the “staining of mucus components of goblet cells” value is recorded as “not stained”.
In the case of `C/C=C/[C@]1(O)Cc2c(oc(O)c2C=O)C2=C(C(=O)CCCCC)C(=O)O[C@@]21C` [xanthomonasin A], the “stained sites, 1 minute versus 10 minutes” value in the experiment on mouse large intestine [3] is listed as “identical in respect of stained sites”. For the same compound, the visibility result in the experiment on mouse large intestine [3] (stained for 10 minutes) is on record as “could be further improved”. Moreover, the “quality of sectional images” value in the experiment on mouse large intestine [4] is given as “very vivid sectional images were obtained”. In addition, in the experiment with mouse large intestine [5], the “staining of epithelial cells” value was “stained relatively excellently” and the “staining of muscular plate” value is on record as “excellently stained”.
